How the values were obtained:
[1] = system: IMQ induced psoriasis in mice; assay: Imiquimod (IMQ) induced psoriasis study, cumulative clinical score; type: in vivo, C57BL/6 female mice
Description: (§1) 8-10 weeks C57BL/6 female mice received a daily topical dose of 62.5 mg/mouse IMQ cream (Aldara® cream 5%; 3M pharmaceuticals, Sweden) on the shaved back and the right ear for 7 consecutive days. Control mice were treated similarly with a control vehicle cream (Vaseline). Test compound (Cpd 24) was orally administered daily from day 0 to day 7 at 3 mg/mL (30 mg/kg). Test compound was given 8 hours before IMQ application. Mice were killed at day 7, 4 h after the last test compound treatment to analyse skin inflammation parameters.
The severity of inflammation of the back skin was determined using the following criteria. An objective scoring system was developed based on the clinical Psoriasis Area and Severity Index (PASI), except that for the mouse model the affected skin area is not taken into account in the overall score. Erythema, scaling, and thickening were scored independently on a scale from 0 to 4: 0: none; 1: slight; 2: moderate; 3: marked; 4: severe. The cumulative score (erythema plus scaling plus thickening) served as a measure of the severity of inflammation (scale 0-12).
(§2) Statistical evaluation of differences between the experimental groups was determined by using two-way Anova followed by a Bonferroni post test. *** p<0.001, IMQ-Vehicle compared with treatment.

[2] = system: Murine EL-4 lymphoma cell line overexpressing human RORγt; assay: IL-17 secretion from EL4 murine lymphoma; type: cell-based; settings: Mus musculus; human RORγt-transfected EL4 cells, PMA (10 ng/mL) and ionomycin (1 μM), 24 h; read-out: IC50, IL-17 secretion inhibition
Procedure, shortened: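 EL-4 cells electroporated with hRORγt plasmid, seeded at 150000 cells/well and pretreated with compound for 24 h, then stimulated with PMA (10 ng/mL) plus ionomycin (1 μM final) with compound for a further 24 h at 37 °C. IL-17 in supernatant measured by HTRF or ELISA.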

MPO activity = MPO activity in ear skin homogenates of the IMQ induced psoriasis study; type: in vivo, C57BL/6 female mice; settings: 30 mpk oral, in comparison with IMQ-vehicle group
Description: as §1
Ear skin tissue were homogenized in PBS containing a protease inhibitor cocktail (P8340, Sigma-Aldrich) by Ultra Turrax, centrifuged and the supernatant was discarded. The pellet was resuspended in 0.5 mL PBS containing 0.5% hexadecyltrimethyl ammonium bromide (HTAB) and 5 mM ethylene-diamine tetra-acetic acid (EDTA). Following centrifugation, 100 μL of supernatants were placed in test tubes with 200 μL PBS-HTAB-EDTA, 1 mL Hanks' balanced salt solution (HBSS), 100 μL of o-dianisidine dihydrochloride (1.25 mg/mL), and 100 μL H2O2 0.05%. […] The MPO activity was determined as absorbance at 460 nm in comparison with medium.
as §2

human RORγt = target: T1, human RORγt (Homo sapiens, UniProt P51449); assay: RORE Luciferase/RORγt transactivation assay; type: cell-based; settings: COS-7 cells transfected with human IL-17 promoter luciferase reporter and RORγt plasmid; 20 h with compound; read-out: IC50, RORγt activity inhibition
T1 construct: the full-length cDNA of human RORγt; expressed in transfected cells; host or cells: COS-7 (monkey kidney)
T1 sequence (P51449 1-497 isoform P51449-2): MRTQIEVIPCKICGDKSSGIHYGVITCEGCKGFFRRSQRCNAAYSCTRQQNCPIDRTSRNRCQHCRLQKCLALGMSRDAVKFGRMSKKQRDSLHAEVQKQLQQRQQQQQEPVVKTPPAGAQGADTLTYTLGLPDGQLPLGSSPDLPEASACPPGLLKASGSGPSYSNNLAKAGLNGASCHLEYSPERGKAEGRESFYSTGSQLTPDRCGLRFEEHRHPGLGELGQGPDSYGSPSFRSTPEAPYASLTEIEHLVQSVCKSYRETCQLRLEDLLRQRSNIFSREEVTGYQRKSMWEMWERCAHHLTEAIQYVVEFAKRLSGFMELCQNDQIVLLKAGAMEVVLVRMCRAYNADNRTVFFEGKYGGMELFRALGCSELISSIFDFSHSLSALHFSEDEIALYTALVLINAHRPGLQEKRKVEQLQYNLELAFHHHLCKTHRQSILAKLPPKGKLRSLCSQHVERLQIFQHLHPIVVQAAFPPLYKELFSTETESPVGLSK
Procedure, shortened: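 COS-7 cells were transiently co-transfected with a human IL-17 promoter (RORE/CNS)–luciferase reporter and a RORγt expression plasmid, then seeded at 10000 cells/well in serum-free, phenol red-free DMEM. Compounds were added at 0.3% DMSO final. Luciferase was read with Steady-Glo, and IC50 and Emax were derived.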

- IC50 [2]: < 100 nM
- IC50 (human RORγt): 10 to 100 nM
SMILES: Cc1ccc(C(NC(=O)Cc2ccc3c(c2)CC(=O)N3)c2ccc(C)o2)c(N2CCCCC2)c1 (centres unmarked) [Cpd. 24, N-{[4-methyl-2-(piperidin-1-yl)phenyl](5-methylfuran-2-yl)methyl}-2-(2-oxo-2,3-dihydro-1H-indol-5-yl)acetamide]
- adverse effect ([1]; after test compound administration, 30 mg/kg orally daily day 0 to day 7): no adverse effect was observed
- cumulative score (erythema plus scaling plus thickening) ([1]; orally 30 mpk, day 5, compared to control treatment): significant decrease
- MPO activity in ear homogenates (MPO activity): reduced MPO activity

— patent publication US11052092B2, “N-{[2-(piperidin-1-yl)phenyl](phenyl)methyl}-2-(3-oxo-3,4-dihydro-2H-1,4-benzoxazin-7-yl)acetamide derivatives and related compounds as ROR-gamma modulators for treating autoimmune diseases” (Genfit, priority 2017, dated 2021)
